In general, Ki refers to the dissociation constant of the complex between target and ligand, obtained from inhibition or displacement.

T1 sequence (O00408 1-920 isoform O00408-2): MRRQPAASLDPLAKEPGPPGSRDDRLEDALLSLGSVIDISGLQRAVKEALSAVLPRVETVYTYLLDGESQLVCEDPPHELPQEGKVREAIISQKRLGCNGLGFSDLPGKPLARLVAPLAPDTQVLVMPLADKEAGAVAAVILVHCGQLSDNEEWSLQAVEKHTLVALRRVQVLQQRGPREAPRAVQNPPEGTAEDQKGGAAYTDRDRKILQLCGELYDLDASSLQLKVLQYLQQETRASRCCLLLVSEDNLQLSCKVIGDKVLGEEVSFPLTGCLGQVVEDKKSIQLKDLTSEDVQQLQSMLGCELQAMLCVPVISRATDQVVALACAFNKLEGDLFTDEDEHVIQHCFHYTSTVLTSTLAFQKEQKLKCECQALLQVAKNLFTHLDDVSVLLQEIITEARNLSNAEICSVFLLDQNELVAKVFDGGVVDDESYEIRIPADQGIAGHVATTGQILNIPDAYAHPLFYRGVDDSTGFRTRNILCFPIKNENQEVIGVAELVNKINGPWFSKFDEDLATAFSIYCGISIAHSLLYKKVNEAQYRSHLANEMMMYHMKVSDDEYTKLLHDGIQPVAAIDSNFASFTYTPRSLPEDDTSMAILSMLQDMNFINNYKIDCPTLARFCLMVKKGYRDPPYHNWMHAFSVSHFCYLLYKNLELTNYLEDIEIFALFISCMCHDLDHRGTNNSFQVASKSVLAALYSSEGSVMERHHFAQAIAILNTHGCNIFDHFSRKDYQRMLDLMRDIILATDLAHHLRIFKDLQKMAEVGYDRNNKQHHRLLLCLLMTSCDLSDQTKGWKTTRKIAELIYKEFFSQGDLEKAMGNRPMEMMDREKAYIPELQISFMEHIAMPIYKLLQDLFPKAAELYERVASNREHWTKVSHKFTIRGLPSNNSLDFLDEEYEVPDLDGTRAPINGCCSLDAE

This assay addresses T1, human PDE2A1 (Homo sapiens, UniProt O00408).
T1 construct: GST; purchased BPS Bioscience (San Diego, Calif.) 60020; host or cells: insect cells
In words: IMAP FP PDE selectivity panel, human PDE2A1. It counts as biochemical. The following applies: Lab B; read-out: Human PDE2 Ki (nM) Lab B. The method, boiled down: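 IMAP FP read-out, run at room temperature in parallel with PDE1–11: enzyme at 20% substrate conversion, 50 nM FAM-cAMP containing 1000 nM cGMP, Tris pH 7.2/MgCl2/DTT buffer. Compounds as ten 3-fold dilutions. Reaction 60 min, stopped with binding reagent for 1 h before polarization measurement.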
For the compound `Cc1cc(NC(CO)c2ccc(C(F)(F)F)cc2)n2ncnc2n1` (centres unmarked) [Example 88, 2-[(5-Methyl[1,2,4]triazolo[1,5-a]pyrimidin-7-yl)amino]-2-[4-(trifluoromethyl)phenyl]ethanol], the Ki turned out to be 736 nM.

On to `Cc1cc(NC(c2ccc(C(F)(F)F)c(F)c2)C(C)(C)N)n2ncnc2n1` (centres unmarked) [Example 252, 1-(3-Fluoro-4-(trifluoromethyl)phenyl)-2-methyl-N-(5-methyl-[1,2,4]triazolo[1,5-a]pyrimidin-7-yl)propane-1,2-diamine], for which the Ki amounted to 60 nM.

For the compound `Cc1cc(NC2(c3ccc(C(F)(F)F)cc3)CCCC2)n2ncnc2n1` [Example 67, 5-Methyl-N-{1-[4-(trifluoromethyl)phenyl]cyclopentyl}[1,2,4]triazolo [1,5-a]pyrimidin-7-amine], the Ki was 367 nM.

With `CC(C)(O)C(Nc1cc(C(F)F)nc2ncnn12)c1ccc(OC(F)(F)F)cc1F` (single isomer, unassigned) [Example 185, (1S or R)-{[5-(Difluoromethyl) [1,2,4]triazolo [1,5-a]pyrimidin-7-yl]amino}-1-[2-fluoro-4-(trifluoromethoxy)phenyl]-2-methylpropan-2-ol], the Ki is 10 nM.

On to `CC(C)(O)C(Nc1cc(C(F)(F)F)nc2ncnn12)c1ccc(C(F)(F)F)cc1Cl` (single isomer, unassigned) [Example 160, (1R or S)-1-[2-chloro-4-(trifluoromethyl)phenyl]-2-methyl-1-{[5-(trifluoromethyl)[1,2,4]triazolo[1,5-a]pyrimidin-7-yl]amino}propan-2-ol], for which the Ki amounted to 81 nM.

As for `Cc1cc(NC(C)(C)c2ccc(C(F)(F)F)c(F)c2)n2ncnc2n1` [Example 46, N-{1-[3-Fluoro-4-(trifluoromethyl)phenyl]-1-methylethyl}-5-methyl [1,2,4]triazolo[1,5-a]pyrimidin-7-amine], the Ki came out at 48 nM.

In the case of `OCCc1cc(NC2(c3ccc(C(F)(F)F)c(F)c3)CC2)n2ncnc2n1` [Example 251, 2-(7-(1-(3-Fluoro-4-(trifluoromethyl)phenyl)cyclopropylamino)-[1,2,4]triazolo[1,5-a]pyrimidin-5-yl)ethanol], the Ki turned out to be 140 nM.

As for `Cc1cc(NC(c2ccc(C3(C)CC3)cc2)C(C)(C)O)n2ncnc2n1` (single isomer, unassigned) [Example 121, (1R or S)-2-Methyl-1-[4-(1-methyl-cyclopropyl)phenyl]-1-[(5-methyl[1,2,4]triazolo[1,5-a]pyrimidin-7-yl)amino]propan-2-ol], the Ki was found to be 11 nM.

For `CC(C)(C)[C@@H](Nc1cc(O)nc2ncnn12)c1ccc(C(F)(F)F)c(F)c1` [Example 238, (R)-7-(1-(3-Fluoro-4-(trifluoromethyl)phenyl)-2,2-dimethylpropylamino)-[1,2,4]triazolo[1,5-a]pyrimidin-5-ol], the Ki is 335 nM.

Take `FS(F)(F)(F)(F)c1ccc(C2(Nc3cncc4ncnn34)CC2)cc1` [Example 290, N-{1-[4-(Pentafluoro-λ^6-sulfanyl)phenyl]cyclopropyl} [1,2,4]triazolo[1,5-a]pyrazin-5-amine]: the Ki stood at 90 nM.

Regarding `Cc1cc(N[C@@H](c2ccc(SC(F)(F)F)c(F)c2)C(C)C)n2ncnc2n1` [Example 21, N-[(1R)-1-{3-Fluoro-4-[(trifluoromethyl)sulfanyl]phenyl}-2-methylpropyl]-5-methyl[1,2,4]triazolo[1,5-a] pyrimidin-7-amine], the Ki came out at 4 nM.

Turning to `Cc1cc(NC(c2ccc(C(F)(F)F)cn2)C(C)C)n2ncnc2n1` (single isomer, unassigned) [Example 212, (S)- or (R)-5-Methyl-N-(2-methyl-1-(5-(trifluoromethyl)pyridin-2-yl)propyl)-[1,2,4]triazolo [1,5-a]pyrimidin-7-amine], the Ki came to 310 nM.

Regarding `Cc1cc(NC(c2ccc(OC(F)(F)F)cc2C)C(C)(C)O)n2ncnc2n1` (single isomer, unassigned) [Example 129, (1R or S)-2-Methyl-1-[(5-methyl[1,2,4]triazolo[1,5-a]pyrimidin-7-yl)amino]-1-[2-methyl-4-(trifluoromethoxy)phenyl]propan-2-ol], the Ki came out at 21 nM.

For the compound `Cc1cc(NC(c2ccc(CC(F)(F)F)cc2)C(C)(C)O)n2ncnc2n1` (single isomer, unassigned) [Example 119, (1R or S)-2-Methyl-1-[(5-methyl [1,2,4]triazolo [1,5-a]pyrimidin-7-yl)amino]-1-[4-(2,2,2-trifluoroethyl)phenyl]propan-2-ol], the Ki is 15 nM.

For the compound `CC(C)(O)C(Nc1cc(C2CC2)nc2ncnn12)c1ccc(C(F)(F)F)cc1` (stereo in doubt) [Example 157, (1S)-1-[(5-Cyclopropyl[1,2,4]triazolo[1,5-a]pyrimidin-7-yl)amino]-2-methyl-1-[4-(trifluoromethyl)phenyl]propan-2-ol], the Ki is 37 nM.

`CC(C)(O)C(Nc1cc(Cl)nc2ncnn12)c1ccc(C(F)(F)F)c(F)c1` (single isomer, unassigned) [Example 223, (R)- or (S)-1-(5-Chloro-[1,2,4]triazolo [1,5-a]pyrimidin-7-ylamino)-1-(3-fluoro-4-(trifluoromethyl)phenyl)-2-methylpropan-2-ol]: the Ki was 1.1 nM.

As to `CC[C@@H](Nc1cc(C)nc2ncnn12)c1ccc(SC(F)(F)F)cc1` [Example 17, 5-Methyl-N-[(1R)-1-{4-[(trifluoromethyl)sulfanyl]phenyl}propyl][1,2,4]triazolo[1,5-a] pyrimidin-7-amine], the Ki amounted to 15 nM.

As for `CC(C)(O)C(Nc1cc(C(F)(F)F)nc2ncnn12)c1ccc(SC(F)(F)F)cc1` (single isomer, unassigned) [Example 222, (S)- or (R)-2-Methyl-1-(5-(trifluoromethyl)-[1,2,4]triazolo [1,5-a]pyrimidin-7-ylamino)-1-(4-(trifluoromethylthio)phenyl)propan-2-ol], the Ki was 4.4 nM.

Consider `Cc1cc(N[C@H](C)c2ccc(OC(F)(F)F)c(Cl)c2)n2ncnc2n1` [Example 9, N-{(1R)-1-[3-Chloro-4-(trifluoromethoxy)phenyl]ethyl}-5-methyl[1,2,4]triazolo[1,5-a] pyrimidin-7-amine], for which the Ki turned out to be 138 nM.

Turning to `Cc1cc(NC(c2ccc(OC(F)(F)F)c(F)c2)C(C)(C)O)n2nc(C)nc2n1` (single isomer, unassigned) [Example 133, (1R or S)-1-[(2,5-Dimethyl[1,2,4]triazolo[1,5-a]pyrimidin-7-yl)amino]-1-[3-fluoro-4-(tri-fluoromethoxy)phenyl]-2-methylpropan-2-ol], the Ki is 18 nM.

As to `Cc1cc(NC2(c3ccc(C(F)(F)F)cc3F)CC2)n2ncnc2n1` [Example 62, N-{1-[2-Fluoro-4-(trifluoromethyl)phenyl]cyclopropyl}5-methyl-[1,2,4]triazolo[1,5-a]pyrimidin-7-amine], the Ki was found to be 162 nM.

As to `CNc1nc2nc(C)cc(NC3(c4ccc(C(F)(F)F)c(F)c4)CC3)n2n1` [Example 257, N^7-{1-[3-Fluoro-4-(trifluoromethyl)phenyl]cyclopropyl}-N^2,5-dimethyl[1,2,4]triazolo[1,5-a]pyrimidine-2,7-diamine], the Ki amounted to 10 nM.

For the compound `Cc1cc(N[C@H](c2ccc(OC(F)(F)F)cc2Cl)C(C)(C)O)n2ncnc2n1` [Example 101, (1R)-1-[2-Chloro-4-(trifluoromethoxy)phenyl]-2-methyl-1-[(5-methyl[1,2,4]triazolo[1,5-a]pyrimidin-7-yl)amino]propan-2-ol], the Ki was found to be 27 nM.

The record behind these values is patent US10357481B2 (MERCK SHARP & DOHME CORP., priority 2015, dated 2019).
